In paper PMC8764033, “Single-molecule analysis of specificity and multivalency in binding of short linear substrate motifs to the APC/C” (Nature Communications, 2022):
pKd: −log10 of the molar value. Like-named read-outs stand apart in the source and are kept apart here. Values belong to the molecule of their own block, whether it stands above or below them. Where a SMILES comes first, the peptide text is derived from it.

Key:
Cdc20 = conditions: cited from earlier work
Text: This specificity raises the exciting possibility of activator-specific targeted protein degradation as a therapeutic application.

Cdh1 WD40 domain (yeast) = biological target: T1, Cdh1 WD40 domain (yeast) (Saccharomyces cerevisiae, UniProt P53197); assay: Fluorescence anisotropy, 10 nM Cy5-labeled degron peptide, yeast Cdh1 WD40; type: binding; conditions: for Kd: source data of Fig. 1a (there μM)
T1 construct: the WD40 domains of yeast Cdh1 (aa 241–550; pNH144); 2xStrep-Tag II (N); made in house; host or cells: Sf9 insect cells (baculovirus)
T1 sequence (P53197 241-550): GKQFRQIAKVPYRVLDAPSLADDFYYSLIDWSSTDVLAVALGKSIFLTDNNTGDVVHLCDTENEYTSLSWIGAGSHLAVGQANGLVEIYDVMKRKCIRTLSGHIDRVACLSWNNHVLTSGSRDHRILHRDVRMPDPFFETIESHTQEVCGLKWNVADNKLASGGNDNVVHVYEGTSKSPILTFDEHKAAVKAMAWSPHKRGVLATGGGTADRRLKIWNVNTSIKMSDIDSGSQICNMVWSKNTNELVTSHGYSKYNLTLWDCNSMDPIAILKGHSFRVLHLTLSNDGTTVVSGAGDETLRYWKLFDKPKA
Text: To determine the affinities of APC/C degrons for their binding sites, we first used conventional equilibrium binding assays of degron peptide binding to the activator. We used the baculovirus system to produce the WD40 domain of Cdh1 from the budding yeast Saccharomyces cerevisiae and measured fluorescence anisotropy to assess the binding of fluorescently-tagged degron peptides at increasing activator concentrations. The WD40 domain of yeast Cdc20 could not be expressed and was not studied.
(§1) Activators were cloned into the pFastBac HT A vector, with an N-terminal 2xStrep-Tag II. For some experiments, we constructed vectors for expression of the WD40 domains of yeast Cdh1 (aa 241–550; pNH144), human Cdh1 (aa 165–484; pNH164), or human Cdc20 (aa 162–484; pNH188). For SMOR, a C-terminal GFP tag was added. Bacmid plasmids are listed in Supplementary Table 3. Plasmids were transformed into DH10Bac cells, and purified Bacmid was used to transfect Sf9 cells to generate P1 baculovirus, which was used to generate P2 virus. SF9 cells were infected with the P2 virus for 48 h. Flash-frozen pellets were lysed by sonication or high-pressure homogenization in lysis buffer B (50 mM Tris-HCl pH 8, 150 mM KCl, 0.5 mM EDTA, 1 mM DTT, 10% Glycerol, EDTA-free protease inhibitor tablet, 1 µg ml^−1 pepstatin A). After the lysate was applied to the StrepTrap column, the column was washed with wash buffer B (lysis buffer B lacking protease inhibitors) and eluted in the same buffer containing 2.5 mM desthiobiotin.
Fluorescent degron peptides carried a C-terminal Cy5 label (CPC Scientific) and are listed in Supplementary Table 4. For anisotropy experiments, 10 nM fluorescent peptide was mixed with various concentrations of purified Cdh1 WD40 in wash buffer B at room temperature for 1 min, which we determined was sufficient for the binding reaction to reach equilibrium. Fluorescence was measured on a K2 Multifrequency Fluorometer at 25 °C. All Cy5-labeled peptides were excited with polarized light at 635 nm and emission was detected using a 700/75 nm bandpass filter (ET series, Chroma). […] Data were fitted to one-site equilibrium binding using GraphPad Prism version 8.4 to determine KD. Results were the same when peptide binding was measured in the buffer used in SMOR assays (buffer C, below).

Cdh1^WD40 = biological target: T2, Cdh1^WD40 (Saccharomyces cerevisiae, UniProt P53197); assay: SMOR assay (single-molecule off-rate, TIRF), yeast Cdh1^WD40; type: binding
T2 construct: the WD40 domains of yeast Cdh1 (aa 241–550; pNH144); made in house; host or cells: Sf9 insect cells (baculovirus)
T2 sequence (P53197 241-550): T1 sequence (P53197 241-550)
Procedure: as §1
(§2) For all SMOR experiments, 24 × 50 mm high precision glass coverslips (Bioscience Tools) and drilled microscope slides were passivated with a combination of PEG and PEG-biotin (coverslips) or PEG only (slides) following a previously published protocol for SiMPull[31]. Reaction chambers (~20 µl) were created using double-sided tape and epoxy. Protein was immobilized on the surface with 0.2 mg ml^−1 NeutrAvidin in buffer C (20 mM HEPES pH 7.5, 150 mM KCl, 10% glycerol, 0.05% Tween-20, 1 mM DTT). Excess NeutrAvidin was washed away and incubated with either biotin-conjugated mouse monoclonal anti-Strep-Tag II antibody (LSBio, Cat. No. LS-C203632-100) or biotin-conjugated rabbit polyclonal anti-GFP antibody (Rockland, Cat. No. 600-406-215) diluted in buffer C + BSA (0.1 mg ml^−1; Molecular Biology Grade Bovine Serum Albumin). Activator WD40 and activated APC/C (typically 50 µl containing about 65 ng APC/C, of which only a small fraction is immobilized on the glass) were immobilized using anti-Strep-Tag II, while APC/C alone was immobilized with anti-GFP. SMOR results were similar when performed in the buffer (wash buffer B) used in polarization anisotropy.
(§3) To capture dynamic protein–protein interactions, dye-labeled substrate diluted in buffer C + BSA was added to the chamber containing immobilized proteins. Interactions were imaged by TIRF microscopy as described below. For optimal signal-to-noise ratio, peptide concentration was no greater than 1 nM. Protein substrates included Hsl1 aa 667–872 and a C-terminal HaloTag followed by a TAP tag, and were produced by translation in rabbit reticulocyte lysates using TnT Quick Coupled Transcription/Translation System (Promega) (see Supplementary Table 5 for plasmids). Protein was purified with magnetic IgG beads and labeled on the bead with JF549 or JF646 dye so that unbound dye could be washed away. Purified dye-labeled protein was then cleaved from the beads using TEV protease. Before adding substrate to the reaction chamber, oxygen scavenging reagents were added (10 nM protocatechuate-3,4-dioxygenase, 2.5 mM protocatechuic acid, and 1 mM Trolox)[41]. A detailed description of the SMOR analysis pipeline is found in Supplementary Note 1.
(§4) Microscopy was performed with a Nikon Eclipse TE2000-E with Perfect Focus with a 100 × 1.49na oil, Apo TIRF DIC N2, 0.13-0.2, WD0.12 objective. Movies were recorded using the Andor iXon DU-897E-CSO. For visualizing GFP-tagged protein, a 491 nm laser was used with an ET525/50 (Chroma) filter for emission. For visualizing JF549-labeled substrate, a 561 nm laser was used with an ET595/50 (Chroma) filter for emission. For visualizing all Cy5-labeled peptides and JF646-labeled substrates, a 640 nm laser was used with an ET685/70 filter (Chroma) for emission. […]

hCdh1^WD40 = biological target: T3, hCdh1^WD40 (Homo sapiens, UniProt Q9UM11); assay: SMOR assay, human Cdh1 WD40; type: binding; conditions: human Cdh1, D-box binding; read-out: inferred kon
T3 construct: human Cdh1 (aa 165–484; pNH164); made in house; host or cells: Sf9 insect cells (baculovirus)
T3 sequence (Q9UM11 165-484): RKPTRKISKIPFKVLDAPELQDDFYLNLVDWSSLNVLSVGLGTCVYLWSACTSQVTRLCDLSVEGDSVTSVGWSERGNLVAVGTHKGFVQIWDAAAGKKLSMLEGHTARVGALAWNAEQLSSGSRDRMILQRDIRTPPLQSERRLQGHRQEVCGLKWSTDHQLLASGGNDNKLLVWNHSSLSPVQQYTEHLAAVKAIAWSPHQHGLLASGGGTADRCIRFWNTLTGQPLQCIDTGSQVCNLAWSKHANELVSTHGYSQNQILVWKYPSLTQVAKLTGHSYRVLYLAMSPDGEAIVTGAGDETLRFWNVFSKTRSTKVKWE
Procedure: as §1, §2, §3, §4

APC/C^apo = biological target: T4, APC/C^apo (Saccharomyces cerevisiae, UniProt P38042+P53068); assay: SMOR assay, yeast APC/C^apo (no activator); type: binding
T4 construct: APC/C was purified from yeast cells; made in house; host or cells: S. cerevisiae W303 strain NHY13 (Cdc16-TAP, Apc1-GFP, cdh1 deleted)
Procedure: Yeast strains were derivatives of W303 and are listed in Supplementary Table 2. For APC/C purification, we used a strain carrying Cdc16-TAP and lacking Cdh1 (DOM1126); in most experiments, the strain also carried Apc1-GFP (NHY13). Yeast were grown in YPD media to OD600 = 0.8, collected and flash-frozen. Cells were lysed by bead beating in lysis buffer A (50 mM HEPES pH 7.5, 150 mM KCl, 10% glycerol, 0.2% Triton X-100, 63 µM B-glycerophosphate, 48 µM sodium fluoride, 1 µg ml^−1 pepstatin A, 1 µg ml^−1 leupeptin, 1 µg ml^−1 aprotinin, 1 mM PMSF, 1 mM DTT, 0.5 mM EDTA) and APC/C was purified using magnetic IgG beads. The beads were washed using wash buffer A (20 mM HEPES pH 7.5, 150 mM KCl, 10% Glycerol, 0.05% Triton X-100). After incubation with purified Cdh1 or Cdc20, the APC/C was cleaved off the beads with TEV protease in wash buffer A with 0.05% Tween-20 (for single-molecule studies) or 0.05% Triton X-100 (for ensemble assays such as ubiquitylation) and used immediately.
as §2, §3
Microscopy was performed with a Nikon Eclipse TE2000-E with Perfect Focus with a 100 × 1.49na oil, Apo TIRF DIC N2, 0.13-0.2, WD0.12 objective. Movies were recorded using the Andor iXon DU-897E-CSO. For visualizing GFP-tagged protein, a 491 nm laser was used with an ET525/50 (Chroma) filter for emission. For visualizing JF549-labeled substrate, a 561 nm laser was used with an ET595/50 (Chroma) filter for emission. For visualizing all Cy5-labeled peptides and JF646-labeled substrates, a 640 nm laser was used with an ET685/70 filter (Chroma) for emission. Initially, for each substrate tested, we acquired movies at multiple intervals to deduce the optimal interval to decrease bleaching. µManager version 2.0 was used to control the microscope and record time-lapse movies.

[1] = mean of the listed replicates, read-out: Mean Kd
[2] = replicate 2021-11-10, read-out: Kd
[3] = replicate 2019-07-08, read-out: Kd

Molecule: Cc1ncc([N+](=O)[O-])n1CCOC(=O)NC(Nc1ncccn1)C(Cl)(Cl)Cl (centres unmarked) [Apcin]
activator specificity (in words) (Cdc20): Cdc20 specificity

Molecule: (Cy5)-SLIFDAFNQIR [Cdh1 IR, Cy5-labeled yeast Cdh1 C-terminal IR peptide]
Dwell Time (APC/C^apo; Supplementary Table 1, replicate 1 (movie listed first)): 0.616 ± 0.019 s | Dwell Time (APC/C^apo; Supplementary Table 1, replicate 2 (movie listed second)): 0.557 ± 0.011 s | mean dwell time (APC/C^apo; representative movie, ± SE, buffer C + BSA): 0.616 ± 0.02 s

Molecule: EQKPKRAALSDITNSFNKMN-K(Cy5) [Hsl1 D box and dark KEN mutant, Cy5 Hsl1 D box peptide (10 nM) in presence of unlabeled mutated Hsl1 KEN (100 µM)]
Kd (Cdh1 WD40 domain (yeast); [1]): 2.86 µM | Kd (Cdh1 WD40 domain (yeast); [2]): 2.16 µM | Kd (Cdh1 WD40 domain (yeast); replicate 2021-11-15, read-out: Kd): 3.56 µM | pKd (Cdh1 WD40 domain (yeast); representative single experiment, Fig. 1c, dark = unlabeled peptide 100 µM, read-out: KD): 5.44

Molecule: EQKPKRAALSDITNSFNKMN-K(Cy5) [Hsl1 D box and dark KEN, Cy5 Hsl1 D box peptide (10 nM) in presence of unlabeled Hsl1 KEN (100 µM)]
Kd (Cdh1 WD40 domain (yeast); [1]): 1.12 µM | Kd (Cdh1 WD40 domain (yeast); [2]): 1.04 µM

Now from value to molecule:

Kd (Cdh1 WD40 domain (yeast); [1]): 3.48 µM | kon (Cdh1^WD40; inferred from koff and anisotropy KD, yeast Cdh1, read-out: association rate constant kon): 800000 M⁻¹ s⁻¹ | koff (Cdh1^WD40; reciprocal of mean dwell time, read-out: dissociation rate constant koff): 2.8 s⁻¹ | kon (hCdh1^WD40): 100000 M⁻¹ s⁻¹
Molecule: CC[C@H](C)[C@H](NC(=O)[C@H](CC(=O)O)NC(=O)[C@H](CO)NC(=O)[C@H](CC(C)C)NC(=O)[C@H](C)NC(=O)[C@H](C)NC(=O)[C@H](CCCNC(=N)N)NC(=O)[C@H](CCCCN)NC(=O)[C@@H]1CCCN1C(=O)[C@H](CCCCN)NC(=O)[C@H](CCC(N)=O)NC(=O)[C@@H](N)CCC(=O)O)C(=O)N[C@H](C(=O)N[C@@H](CC(N)=O)C(=O)N[C@@H](CO)C(=O)N[C@@H](Cc1ccccc1)C(=O)N[C@@H](CC(N)=O)C(=O)N[C@@H](CCCCN)C(=O)N[C@@H](CCSC)C(=O)N[C@@H](CC(N)=O)C(=O)N[C@@H](CCCCN)C(=O)O)[C@@H](C)O [Hsl1 D box] (H-EQKPKRAALSDITNSFNKMNK-OH)

Kd (Cdh1 WD40 domain (yeast); [1]): 10.9 µM | Kd (Cdh1 WD40 domain (yeast); [3]): 6.35 µM | Kd (Cdh1 WD40 domain (yeast); [2]): 15.5 µM
Molecule: GVSTNKENEGPEYPTKIE-K(Cy5) [Hsl1 KEN and dark D box mutant, Cy5 Hsl1 KEN peptide (10 nM) in presence of unlabeled mutated Hsl1 D box (100 µM)]

Kd (Cdh1 WD40 domain (yeast); [1]): 3.37 µM | Kd (Cdh1 WD40 domain (yeast); [3]): 3.41 µM | Kd (Cdh1 WD40 domain (yeast); [2]): 3.34 µM
Molecule: GVSTNKENEGPEYPTKIE-K(Cy5) [Hsl1 KEN and dark D box, Cy5 Hsl1 KEN peptide (10 nM) in presence of unlabeled Hsl1 D box (100 µM)]
